Test results: ChEMBL document CHEMBL3774356, “Definitive Metabolite Identification Coupled with Automated Ligand Identification System (ALIS) Technology: A Novel Approach to Uncover Structure-Activity Relationships and Guide Drug Design in a Factor IXa Inhibitor Program” (J Med Chem, 2016)

Experiments:
[1] = target: Coagulation factor IX (Homo sapiens, UniProt P00740); assay: Inhibition of human factor 9a using CH3SO2-DCHG-Gly-Arg-AFC.AcOH as substrate preinubated for 30 mins followed by substrate addition measured after 1 hr by fluorescence assay
[2] = test system: Liver microsome; assay: Drug level in human liver microsomes treated with (R)-2,6-Dichloro-N-(2-(3-fluorophenyl)-2-(2-methyl-1Hbenzo[d]imidazol-5-yl)ethyl)-4-(3-methyl-1H-1,2,4-triazol-1-yl)-benzamide after 4 hrs by LC-MS/MS analysis; assay type: ADME
[3] = test system: Liver microsome; assay: Drug level in Sprague-Dawley rat liver microsomes treated with (R)-2,6-Dichloro-N-(2-(3-fluorophenyl)-2-(2-methyl-1Hbenzo[d]imidazol-5-yl)ethyl)-4-(3-methyl-1H-1,2,4-triazol-1-yl)-benzamide after 4 hrs by LC-MS/MS analysis; assay type: ADME
[4] = test system: Liver microsome; assay: Drug level in beagle dog liver microsomes treated with (R)-2,6-Dichloro-N-(2-(3-fluorophenyl)-2-(2-methyl-1Hbenzo[d]imidazol-5-yl)ethyl)-4-(3-methyl-1H-1,2,4-triazol-1-yl)-benzamide at 100 uM after 4 hrs by LC-MS/MS analysis; assay type: ADME, Canis lupus familiaris
[5] = Retention time of the compound by size exclusion chromatography; assay type: physicochemical
[6] = test system: Rattus norvegicus; assay: Dose normalized AUC in Hans-Wistar rat at 2 mg/kg, po; assay type: ADME, organism-based; conditions: in vivo
[7] = test system: Liver microsome; assay: Drug metabolism in human liver microsomes assessed as (R)-2,6-dichloro-N-(2-(3-fluorophenyl)-2-(2-methyl-1H-benzo[d]imidazol-5-yl)ethyl)-4-(3-(hydroxymethyl)-1H-1,2,4-triazol-1-yl)benzamide formation after 4 hrs by LC-MS/MS analysis; assay type: ADME
[8] = test system: Liver microsome; assay: Drug metabolism in human liver microsomes assessed as (R)-2,6-dichloro-N-(2-(3-fluorophenyl)-2-hydroxy-2-(2-methyl-1H-benzo[d]imidazol-5-yl)ethyl)-4-(3-methyl-1H-1,2,4-triazol-1-yl)benzamide formation after 4 hrs by LC-MS/MS analysis; assay type: ADME
[9] = test system: Liver microsome; assay: Drug metabolism in Sprague-Dawley rat liver microsomes assessed as (R)-2,6-dichloro-N-(2-(3-fluorophenyl)-2-(2-methyl-1H-benzo[d]imidazol-5-yl)ethyl)-4-(3-(hydroxymethyl)-1H-1,2,4-triazol-1-yl)benzamide formation after 4 hrs by LC-MS/MS analysis; assay type: ADME
[10] = test system: Liver microsome; assay: Drug metabolism in Sprague-Dawley rat liver microsomes assessed as (R)-2,6-dichloro-N-(2-(3-fluorophenyl)-2-hydroxy-2-(2-methyl-1H-benzo[d]imidazol-5-yl)ethyl)-4-(3-methyl-1H-1,2,4-triazol-1-yl)benzamide formation after 4 hrs by LC-MS/MS analysis; assay type: ADME
[11] = test system: Liver microsome; assay: Drug metabolism in beagle dog liver microsomes assessed as (R)-2,6-dichloro-N-(2-(3-fluorophenyl)-2-(2-methyl-1H-benzo[d]imidazol-5-yl)ethyl)-4-(3-(hydroxymethyl)-1H-1,2,4-triazol-1-yl)benzamide formation at 100 uM after 4 hrs by LC-MS/MS analysis; assay type: ADME, Canis lupus familiaris
[12] = test system: Liver microsome; assay: Drug metabolism in beagle dog liver microsomes assessed as (R)-2,6-dichloro-N-(2-(3-fluorophenyl)-2-hydroxy-2-(2-methyl-1H-benzo[d]imidazol-5-yl)ethyl)-4-(3-methyl-1H-1,2,4-triazol-1-yl)benzamide formation at 100 uM after 4 hrs by LC-MS/MS analysis; assay type: ADME, Canis lupus familiaris

Coagulation factor IX, sequence (P00740 47-191 limits assumed): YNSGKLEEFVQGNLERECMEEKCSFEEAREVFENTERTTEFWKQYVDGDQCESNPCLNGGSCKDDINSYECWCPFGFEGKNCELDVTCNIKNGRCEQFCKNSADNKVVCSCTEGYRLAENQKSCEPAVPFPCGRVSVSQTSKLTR
Coagulation factor IX, sequence (P00740 227-461 limits assumed): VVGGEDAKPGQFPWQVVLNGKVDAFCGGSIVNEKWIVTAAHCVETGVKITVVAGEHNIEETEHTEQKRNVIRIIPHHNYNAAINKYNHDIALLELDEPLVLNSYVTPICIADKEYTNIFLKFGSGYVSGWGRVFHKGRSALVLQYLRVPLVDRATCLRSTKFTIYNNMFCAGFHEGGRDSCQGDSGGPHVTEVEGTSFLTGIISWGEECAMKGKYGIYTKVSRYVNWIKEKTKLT

SMILES	IC50 [1] [nM]	Drug metabolism [2]	Drug metabolism [3]	Drug metabolism [4]	Retention_time [5] [min]	AUC/dose [6] [µM·h/mg/kg]	Drug metabolism [7]	Drug metabolism [8]	Drug metabolism [9]	Drug metabolism [10]	Drug metabolism [11]	Drug metabolism [12]	Ki [1] [nM]
Cc1nc2cc([C@@H](CNC(=O)c3c(Cl)cc(-n4cnc(CO)n4)cc3Cl)c3cccc(F)c3)ccc2[nH]1	11	metabolite_detected	metabolite_detected	metabolite_detected	3.84	–	–	–	–	–	–	–	–
Cc1ncn(-c2cc(Cl)c(C(=O)NC[C@@H](c3cccc(F)c3)c3ccc4[nH]c(C)nc4c3)c(Cl)c2)n1	9.99	–	–	–	–	0.097	metabolite_detected	metabolite_detected	metabolite_detected	metabolite_detected	metabolite_detected	metabolite_detected	–
Cc1ncn(-c2cc(Cl)c(C(=O)NC[C@@H](c3cccc(F)c3)c3cc(F)c4[nH]c(C)nc4c3)c(Cl)c2)n1	–	–	–	–	–	–	–	–	–	–	–	–	10.6

Continued, values first:

IC50 [1] [nM]	Drug metabolism [2]	Drug metabolism [3]	Drug metabolism [4]	Retention_time [5] [min]	AUC/dose [6] [µM·h/mg/kg]	Drug metabolism [7]	Drug metabolism [8]	Drug metabolism [9]	Drug metabolism [10]	Drug metabolism [11]	Drug metabolism [12]	Ki [1] [nM]	SMILES
63.9	metabolite_detected	metabolite_detected	metabolite_detected	4.24	–	–	–	–	–	–	–	–	Cc1ncn(-c2cc(Cl)c(C(=O)NCC(O)(c3cccc(F)c3)c3ccc4[nH]c(C)nc4c3)c(Cl)c2)n1 (single isomer, unassigned)
1.86	metabolite_detected	metabolite_detected	–	3.59	–	–	–	–	–	–	–	–	Cc1ncn(-c2cc(Cl)c(C(=O)NC[C@@H](c3ccc(O)c(F)c3)c3ccc4[nH]c(C)nc4c3)c(Cl)c2)n1
